Results taken from patent US20250145633A1, “SUBSTITUTED FURANOPYRIMIDINE COMPOUNDS AS PDE1 INHIBITORS” (Dart NeuroScience, LLC, priority 2017, published 2025).

Target: human PDE1B enzyme (Homo sapiens (Human), UniProt Q01064)
Test: IMAP TR-FRET PDE1B enzymatic assay
Type: biochemical
Conditions: negative log of half-maximal molar inhibitory concentration; 200 nM FAM-cAMP; values given as bins; read-out: PDE1b (pIC50) (converted)
How it was run: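 Full-length GST-tagged human PDE1B (250 pg/well) in IMAP BSA buffer with 10 U/ml calmodulin and 2.5 mM CaCl2; compound pre-incubated 5 min at room temperature, then 200 nM (final) FAM-cAMP for 30 min. IMAP binding reagent/Tb added, 1 h; TR-FRET 520/490 ratio read. IC50 from sigmoidal dose-response fit.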

| SMILES | IC50 |
| --- | --- |
| Cc1oc2ncnc(NC3(C)CC3)c2c1C(=O)Nc1cnn(-c2ncccn2)c1 [Example 473, 6-Methyl-4-[(1-methylcyclopropyl)amino]-N-[1-(pyrimidin-2-yl)-1H-pyrazol-4-yl]furo[2,3-d]pyrimidine-5-carboxamide] | 10 to 100 nM |
| Cc1ccc(NC(=O)c2c(C)oc3ncnc(NC4(C)CC4)c23)nn1 [Example 434, 6-Methyl-4-[(1-methylcyclopropyl)amino]-N-(6-methylpyridazin-3-yl)furo[2,3-d]pyrimidine-5-carboxamide] | 100 to 1000 nM |
| Cc1oc2ncnc(NC3(C)CC3)c2c1C(=O)N1CCn2c(C3CC3)nc(I)c2C1 [Example 695, 5-{3-Cyclopropyl-1-iodo-5H,6H,7H,8H-imidazo[1,5-a]pyrazine-7-carbonyl}-6-methyl-N-(1-methylcyclopropyl)furo[2,3-d]pyrimidin-4-amine] | 10 to 100 nM |
| Cc1oc2ncnc(NC3(C)CC3)c2c1C(=O)N1C[C@H]2CC[C@@H](C1)O2 [Example 499, 6-Methyl-N-(1-methylcyclopropyl)-5-[(1R,5S)-8-oxa-3-azabicyclo[3.2.1]octane-3-carbonyl]furo[2,3-d]pyrimidin-4-amine] | 100 to 1000 nM |
| COc1ccc(CN(C)C(=O)c2c(C)oc3ncnc(NC4(C)CC4)c23)cc1O [Example 604, N-[(3-Hydroxy-4-methoxyphenyl)methyl]-N,6-dimethyl-4-[(1-methylcyclopropyl)amino]furo[2,3-d]pyrimidine-5-carboxamide] | 10 to 100 nM |
